Results on 13 compounds are retold here after patent US12331041B2, “GLP-1 receptor agonists and uses thereof” (Pfizer Inc., priority 2018, dated 2025).

SMILES strings stand for the structures. Where a name gives a salt, the structure may show the parent alone.

The target in experiment [1] is T1, human GLP-1R (Homo sapiens, UniProt P43220, L260F).
T1 construct: expressed in transfected cells; host or cells: CHO Flp-In T-REx, clonal line C6 (pcDNA5-FRT-TO)
Briefly: CHO GLP-1R Clone C6 - Assay 2 (HTRF cAMP agonist assay). The experiment is classed as cell-based. Particulars: for EC50: CHO clone C6, low GLP-1R density, cAMP, geometric mean; for Emax: CHO clone C6, relative to saturating full agonist GLP-1 (1 μM), arithmetic mean. The method, then: GLP-1R-mediated agonist activity was determined with a cell-based functional assay utilizing an HTRF (Homogeneous Time-Resolved Fluorescence) cAMP detection kit (cAMP HI Range Assay Kit; Cis Bio cat #62AM6PEJ) that measures cAMP levels in the cell. The method is a competitive immunoassay between native cAMP produced by the cells and exogenous cAMP labeled with the dye d2. The tracer binding is visualized by a mAb anti-cAMP labeled with Cryptate. The specific signal (i.e. energy transfer) is inversely proportional to the concentration of cAMP in either a standard or an experimental sample.
The human GLP-1R coding sequence (NCBI Reference Sequence NP_002053.3, including naturally-occurring variant Leu260Phe) was subcloned into pcDNA5-FRT-TO and a clonal CHO cell line stably expressing a low receptor density was isolated using the Flp-In™ T-Rex™ System, as described by the manufacturer (ThermoFisher).
A 1 mL sample of the cell suspension in growth media was counted on a Becton Dickinson ViCell to determine cell viability and cell count per mL. The remaining cell suspension was then adjusted with growth media to deliver 1600 viable cells per well using a Matrix Combi Multidrop reagent dispenser, and the cells were dispensed into a white 384 well tissue culture treated assay plate (Corning 3570). The assay plate was then incubated for 48 h at 37° C. in a humidified environment (95% O2, 5% CO2)
Varying concentrations of each compound to be tested (in DMSO) were diluted in assay buffer [HBSS with Calcium/Magnesium (Lonza/BioWhittaker cat #10-527F)/0.1% BSA (Sigma Aldrich cat #A7409-1L)/20 mM HEPES (Lonza/BioWhittaker cat #17-737E)] containing 100 μM 3-isobutyl-1-methylxanthin (IBMX; Sigma cat #15879). The final DMSO concentration in the compound/assay buffer mixture is 1%.
After 48 h, the growth media was removed from the assay plate wells, and the cells were treated with 20 μL of the serially diluted compound in assay buffer for 30 min at 37° C. in a humidified environment (95% O2, 5% CO2). Following the 30 min incubation, 10 μL of labeled d2 cAMP and 10 μL of anti-cAMP antibody (both diluted 1:20 in cell lysis buffer; as described in the manufacturer's assay protocol) were added to each well of the assay plate. The plates were then incubated at room temperature and after 60 minutes, changes in the HTRF signal were read with an Envision 2104 multi-label plate reader using excitation of 330 nm and emissions of 615 and 665 nm. Raw data were converted to nM cAMP by interpolation from a cAMP standard curve (as described in the manufacturer's assay protocol) and the percent effect was determined relative to a saturating concentration of the full agonist GLP-1 (1 μM) included on each plate. EC50 determinations were made from agonist dose response curves analyzed with a curve fitting program using a 4-parameter logistic dose response equation.

The target in experiment [2] is T2, human GLP-1R (Homo sapiens, UniProt P43220, G168S).
T2 construct: expressed in transfected cells
T2 sequence (P43220 24-463 G168S): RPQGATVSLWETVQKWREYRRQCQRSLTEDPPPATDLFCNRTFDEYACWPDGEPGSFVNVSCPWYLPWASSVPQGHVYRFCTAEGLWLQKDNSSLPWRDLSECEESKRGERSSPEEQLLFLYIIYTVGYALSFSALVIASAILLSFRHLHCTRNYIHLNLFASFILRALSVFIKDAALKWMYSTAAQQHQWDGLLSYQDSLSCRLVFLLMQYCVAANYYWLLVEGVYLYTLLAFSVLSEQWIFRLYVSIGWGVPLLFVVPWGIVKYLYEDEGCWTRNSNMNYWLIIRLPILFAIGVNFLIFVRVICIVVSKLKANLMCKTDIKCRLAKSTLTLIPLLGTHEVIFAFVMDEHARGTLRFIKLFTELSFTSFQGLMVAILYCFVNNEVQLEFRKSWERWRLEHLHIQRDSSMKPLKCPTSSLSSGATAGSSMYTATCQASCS
Briefly: CHO GLP-1R Clone H6 - Assay 1 (HTRF cAMP agonist assay). Particulars: for EC50: CHO Clone H6, high GLP-1R density, cAMP, geometric mean; for Assay 1 Emax (%) / Emax: CHO Clone H6, relative to saturating full agonist GLP-1 7-36 (1 μM), arithmetic mean. The experiment is classed as cell-based. As to the method:
GLP-1R-mediated agonist activity was determined with a cell-based functional assay utilizing an HTRF (Homogeneous Time-Resolved Fluorescence) cAMP detection kit (cAMP HI Range Assay Kit; CisBio cat #62AM6PEJ) that measures cAMP levels in the cell. The method is a competitive immunoassay between native cAMP produced by the cells and exogenous cAMP labeled with the dye d2, The tracer binding is visualized by a mAb anti-cAMP labeled with Cryptate. The specific signal (i.e. energy transfer) is inversely proportional to the concentration of cAMP in either standard or experimental sample.
The human GLP-1R coding sequence (NCBI Reference Sequence NP_002053.3, including naturally-occurring variant Gly168Ser) was subcloned into pcDNA3 (Invitrogen) and a cell line stably expressing the receptor was isolated (designated Clone H6).
A 1 mL sample of the cell suspension in growth media was counted on a Becton Dickinson ViCell to determine cell viability and cell count per mL. The remaining cell suspension was then adjusted with growth media to deliver 2000 viable cells per well using a Matrix Combi Multidrop reagent dispenser, and the cells were dispensed into a white 384 well tissue culture treated assay plate (Corning 3570). The assay plate was then incubated for 48 hours at 37° C. in a humidified environment in 5% carbon dioxide.
Varying concentrations of each compound to be tested (in DMSO) were diluted in assay buffer (HBSS with Calcium/Magnesium (Lonza/BioWhittaker cat #10-527F)/0.1% BSA (Sigma Aldrich cat #A7409-1L)/20 mM HEPES (Lonza/BioWhittaker cat #17-737E) containing 100 μM 3-isobutyl-1-methylxanthin (IBMX; Sigma cat #15879). The final DMSO concentration is 1%.
After 48 hours, the growth media was removed from the assay plate wells, and the cells were treated with 20 μL of the serially diluted compound in assay buffer for 30 minutes at 37° C. in a humidified environment in 5% carbon dioxide. Following the 30 minute incubation, 10 μL of labeled d2 cAMP and 10 μL of anti-cAMP antibody (both diluted 1:20 in cell lysis buffer; as described in the manufacturer's assay protocol) were added to each well of the assay plate. The plates were then incubated at room temperature and after 60 minutes, changes in the HTRF signal were read with an Envision 2104 multi-label plate reader using excitation of 330 nm and emissions of 615 and 665 nm. Raw data were converted to nM cAMP by interpolation from a cAMP standard curve (as described in the manufacturer's assay protocol) and the percent effect was determined relative to a saturating concentration of the full agonist GLP-17-36 (1 μM) included on each plate. EC50 determinations were made from agonist dose-response curves analyzed with a curve fitting program using a 4-parameter logistic dose response equation.
A general note: Time-resolved FRET reads energy transfer from a long-lived donor to a nearby acceptor.

T1 sequence (P43220 24-463 L260F): as the sequence (P43220 24-463 G168S) above, with S145G, L237F counted along it

Turning to `CCn1cncc1Cn1c(CN2CCC(c3ccnc(OCc4ccc(Cl)cc4F)n3)CC2)nc2ccc(C(=O)O)cc21` [Example 63, 2-[(4-{2-[(4-chloro-2-fluorobenzyl)oxy]pyrimidin-4-yl}piperidin-1-yl)methyl]-1-[(1-ethyl-1H-imidazol-5-yl)methyl]-1H-benzimidazole-6-carboxylic acid], at human GLP-1R [1], the EC50 worked out at 0.01 µM and the Emax is 97%.
In the case of `N#Cc1ccc(COc2nc(N3CCC4(CC3)CC4c3nc4ccc(C(=O)O)cc4n3CC3CCO3)c(F)cc2F)c(F)c1` (single isomer, unassigned; ent-2) [Example 58], at human GLP-1R [2], the EC50 is 0.043 µM and the “Assay 1 Emax (%)” value is 74%.
Consider `C[C@H]1CN(c2nc(OCc3ccc(C#N)cc3)ncc2F)CCN1Cc1nc2ccc(C(=O)O)cc2n1CCC(F)(F)F` [Example 70, ammonium 2-{[(2S)-4-{2-[(4-cyanobenzyl)oxy]-5-fluoropyrimidin-4-yl}-2-methylpiperazin-1-yl]methyl}-1-(3,3,3-trifluoropropyl)-1H-benzimidazole-6-carboxylate], for which, at human GLP-1R [2], a half-maximal effect (EC50) was put at 0.7 µM and the Emax was 79%.
At human GLP-1R [1], `N#Cc1ccc(COc2ncccc2C2CCN(Cc3nc4ccc(C(=O)O)nc4n3C[C@@H]3CCO3)CC2)c(F)c1` [Example 18, ammonium 2-[(4-{2-[(4-cyano-2-fluorobenzyl)oxy]pyridin-3-yl}piperidin-1-yl)methyl]-3-[(2S)-oxetan-2-ylmethyl]-3H-imidazo[4,5-b]pyridine-5-carboxylate] yielded an EC50 of 0.059 µM and an Emax of 100%.
On human GLP-1R [2], `C[C@H]1CN(c2nccnc2OCc2ccc(Cl)cc2F)CCN1Cc1nc2ccc(C(=O)O)nc2n1C` [Example 34, 2-{[(2S)-4-{3-[(4-Chloro-2-fluorobenzyl)oxy]pyrazin-2-yl}-2-methylpiperazin-1-yl]methyl}-3-methyl-3H-imidazo[4,5-b]pyridine-5-carboxylic acid, trifluoroacetate salt] came in with an EC50 of 1.9 µM and a maximal response (Emax) of 92%.
As for `COCCn1c(C2CC23CCN(c2cccc(OCc4ccc(Cl)cc4F)n2)CC3)nc2ncc(C(=O)O)cc21` (single isomer, unassigned) [Example 48, 2-(6-{6-[(4-chloro-2-fluorobenzyl)oxy]pyridin-2-yl}-6-azaspiro[2.5]oct-1-yl)-1-(2-methoxyethyl)-1H-imidazo[4,5-b]pyridine-6-carboxylic acid, ENT-1], on human GLP-1R [2], the concentration for a half-maximal effect (EC50) was determined as 2.6 µM and the Emax is 56%.
The like results for `COCCn1c(C2CC23CCN(c2nc(OCc4ccc(Cl)cc4F)ncc2F)CC3)nc2cnc(C(=O)O)cc21` (single isomer, unassigned) [Example 31, 2-(6-{2-[(4-chloro-2-fluorobenzyl)oxy]-5-fluoropyrimidin-4-yl}-6-azaspiro[2.5]oct-1-yl)-1-(2-methoxyethyl)-1H-imidazo[4,5-c]pyridine-6-carboxylic acid, trifluoroacetate salt, single enantiomer; from P7] were, in that order, 0.3 µM and 65%.
Consider `COCCn1c(C2CC23CCN(c2nc(OCc4ccc(Cl)cc4F)ncc2F)CC3)nc2cnc(C(=O)O)cc21` (single isomer, unassigned) [Example 32, 2-(6-{2-[(4-chloro-2-fluorobenzyl)oxy]-5-fluoropyrimidin-4-yl}-6-azaspiro[2.5]oct-1-yl)-1-(2-methoxyethyl)-1H-imidazo[4,5-c]pyridine-6-carboxylic acid, trifluoroacetate salt, single enantiomer; from C23], for which the EC50 at human GLP-1R [2] is over 20 µM.
`COCCn1c(C2CC23CCN(c2ccnc(OCc4ccc(Cl)cc4F)n2)CC3)nc2ccc(C(=O)O)cc21` (single isomer, unassigned; ent-1) [Example 46, Ammonium 2-(6-{2-[(4-chloro-2-fluorobenzyl)oxy]pyrimidin-4-yl}-6-azaspiro[2.5]oct-1-yl)-1-(2-methoxyethyl)-1H-benzimidazole-6-carboxylate, ENT-1]: on human GLP-1R [2], the EC50 is over 9.7 µM and the maximum response (Emax) worked out at 100%.
On human GLP-1R [2], `Cn1cnc(Cn2c(CN3CCC(c4ccnc(OCc5ccc(Cl)cc5F)n4)CC3)nc3ccc(C(=O)O)cc32)c1` [Example 66, 2-[(4-{2-[(4-chloro-2-fluorobenzyl)oxy]pyrimidin-4-yl}piperidin-1-yl)methyl]-1-[(1-methyl-1H-imidazol-4-yl)methyl]-1H-benzimidazole-6-carboxylic acid] had an EC50 of 0.17 µM and an Emax of 110%.
With `Cn1nncc1Cn1c(CN2CCC(c3cccnc3OCc3ccc(Cl)cc3F)CC2)nc2ccc(C(=O)O)cc21` [Example 10, 2-[(4-{2-[(4-chloro-2-fluorobenzyl)oxy]pyridin-3-yl}piperidin-1-yl)methyl]-1-[(1-methyl-1H-1,2,3-triazol-5-yl)methyl]-1H-benzimidazole-6-carboxylic acid, trifluoroacetate salt], at human GLP-1R [1], the EC50 turned out to be 0.22 µM and the maximal effect (Emax) came to 100%.
`Cn1c(CN2CCC(c3nccnc3OCc3ccc(Cl)cc3F)CC2)nc2cnc(C(=O)O)cc21` [Example 29, 2-[(4-{3-[(4-Chloro-2-fluorobenzyl)oxy]pyrazin-2-yl}piperidin-1-yl)methyl]-1-methyl-1H-imidazo[4,5-c]pyridine-6-carboxylic acid, trifluoroacetate salt]: at human GLP-1R [2], the EC50 amounted to 1.8 µM and the Emax came to 65%.
On to `O=C(O)c1ccc2nc(C3CC34CCN(c3nc(OCc5ccc(Cl)cc5F)ncc3F)CC4)n(CCn3cncn3)c2c1` (single isomer, unassigned) [Example 42, 2-(6-{2-[(4-chloro-2-fluorobenzyl)oxy]-5-fluoropyrimidin-4-yl}-6-azaspiro[2.5]oct-1-yl)-1-[2-(1H-1,2,4-triazol-1-yl)ethyl]-1H-benzimidazole-6-carboxylic acid, trifluoroacetate salt, from C23], for which, at human GLP-1R [2], a half-maximal response (EC50) required 3.4 µM and the “Assay 1 Emax (%)” value is given as 89%.

The term EC50 denotes the concentration that produces a half-maximal response. As a reminder, the Emax is the maximal effect, on the per cent scale that the assay sets.
